{"source": "patent US20160113931A1", "about": "“Method of treating and/or preventing neurodegenerative diseases” (University of Macau, priority 2014, published 2016)", "key": {"[1]": {"system": "PKA/CREB/Bcl2 signaling pathway", "assay": "Western blotting of phosphorylated PKA, phosphorylated CREB and Bcl2 in SH-SY5Y cells", "assay_type": "cell-based, human", "experimental": "Cells were pre-treated with 30 μM BHDPC for 2 h.\nCells were pre-treated with BHDPC (3, 10 and 30 μM) for 2 h and then were collected at 120 min. […] The expression ratios of phosphorylated PKA, phosphorylated CREB and Bcl2 proteins as detected by Western blotting with specific antibodies were shown in FIGS. 8B, 8C and 8D respectively.\nAfter treatment, SH-SY5Y cells were collected and washed three times with ice-cold PBS. Then the harvested cells were lysed on ice for 30 min in RIPA lysis buffer containing 1% PMSF and 1% Protease Inhibitor Cocktail and centrifuged at 12,500×g for 20 min at 4° C. The supernatant was collected and protein concentrations were determined using the BCA protein assay kit (Thermo Scientific Pierce). Aliquots of protein samples (30 μg) were boiled for 5 min at 95° C. and electrophoresed on SDS-PAGE (10% (w/v) polyacrylamide gel) and then transferred to a polyvinylidene difluoride (PVDF) membrane (Bio-Rad, Hercules, Calif.). Subsequently, the membrane was blocked with 5% (w/v) non-fat milk in PBST (PBS containing 0.1% Tween-20) for 2 h at room temperature. The blots were incubated overnight at 4° C. with primary antibodies. After washed with PBST for 20 min at room temperature, the membranes were further incubated with horseradish peroxidase-conjugated secondary antibodies for 2 h at room temperature. Finally, protein bands were visualized using an ECL plus Western blotting detection reagents (GE Healthcare, Piscataway, N.J., USA). The membranes were then scanned on a Bio-Rad ChemiDoc XRS Imaging System and the intensity of the protein bands were analyzed using the Bio-Rad Quantity One Software (4.5.2).\nTo determine which survival signaling pathway is regulated by BHDPC, SH-SY5Y cells were pre-treated with 30 μM BHDPC for 2 h, and then the phosphorylation of PKA at […] were examined by Western blot analysis. […] The inventors also determined whether BHDPC affected the phosphorylation of CREB. […] Bcl2 is a well-known anti-apoptotic protein. The inventors determined whether BHDPC affected the expression of Bcl2."}, "zebrafish": {"system": "zebrafish", "assay": "MPTP-induced deficit of locomotion behavior in zebrafish larvae", "assay_type": "in vivo, Danio rerio", "experimental": "Three dpf zebrafish embryos were co-incubated with 10 μM MPTP and BHDPC at the indicated concentrations for 96 hours, and zebrafish larval co-treated with MPTP and 150 μM L-dopa was used as positive control. After treatment, zebrafish were collected to perform locomotion behavior test using Viewpoint Zebrabox system and total distances travelled in 10 min were calculated.\nThe AB strain of wild type zebrafish (Danio rerio) was maintained as described in the Zebrafish Handbook. Zebrafish were staged by days post fertilization […]. For breeding, groups of male and female (3:2) adult zebrafish were placed in 10-L plastic aquarium equipped with spawning nets in the evening. In the following morning, eggs were collected from the breeding group tanks. Normally developed fertilized eggs were selected under a stereomicroscope for further studies. The MPTP manipulation was performed with appropriate safety precautions and all MPTP-containing water was bleached.\nIn addition, MPTP markedly altered the swimming behavior of the zebrafish as a consequence of DA neuronal injury. […] BHDPC ameliorated MPTP-induced deficit of swimming behavior. At the same condition, MPTP-induced deficit of swimming behavior were rescued by positive controls, levodopa (L-dopa) (FIG. 16)."}, "primary cortical neurons": {"system": "primary cortical neurons", "assay": "MPP+-induced neuronal death in primary cortical neurons (LDH release)", "assay_type": "cell-based, rat", "details": "2 h pre-treatment, 200 μM MPP+ 24 h", "experimental": "Primary culture of cortical neurons was prepared from embryonic day 18±0.5 Sprague-Dawley rats. One day after seeding, primary cortical neurons were treated with 10 and 30 μM BHDPC for 14 days. Fourteen days following BHDPC treatment, primary cortical neurons cultured on glass coverslips (Thermo Scientific) were fixed with 4% paraformaldehyde for 15 min. Following fixation, neurons were permeabilized with 0.1% Triton X-100 in Tris-buffered saline for 7 min, and blocked with 4% bovine serum albumin and 2% goat serum for 1 h. α-tubulin and MAP2 were incubated at 1:400 dilution for 1 h at room temperature and overnight at 4° C. respectively. Following primary antibody incubation, neurons were incubated with Alexa Flour 488 or 568 secondary antibodies (anti-rabbit or anti-mouse) at 1:400 dilution for 1 h at room temperature. […] Fluorescence intensity was measured using Image J.\nCell cytotoxicity was also determined by measuring the activity of LDH released into the incubation medium when cellular membranes were damaged. […] After treatment, the released LDH activity in the medium was measured according to the instructions of the Cytotoxicity Detection Kit (Roche Applied Science, Mannheim, Germany). Absorbance at 490 nm was measured using SpectraMax M5. […]\nLDH release was measured at 24 hours after the MPP^+ challenge."}}, "note": "Entries after “also recorded” stand apart in the source; their conditions may differ."}
{"compound": "COc1cc(C2C(C(=O)OCc3ccccc3)=C(C)Nc3nnnn32)ccc1O", "note": "(stereo not shown) [BHDPC, benzyl 7-(4-hydroxy-3-methoxyphenyl)-5-methyl-4,7-dihydrotetrazolo[1,5-a]pyrimidine-6-carboxylate]", "values": [{"measurement": "phosphorylation intensity of PKA, time course", "setting": "[1]; 30 μM, 0 to 120 min, particularly at 90 and 120 min", "value": "gradually increased; also recorded: activated PKA signaling pathway"}, {"measurement": "expression of Bcl2, dose-dependent", "setting": "[1]; 3, 10 and 30 μM, 2 h", "value": "up-regulated"}, {"measurement": "phosphorylation intensity of CREB, dose-dependent", "setting": "[1]; 3, 10 and 30 μM, 2 h", "value": "increased"}, {"measurement": "phosphorylation intensity of PKA, dose-dependent", "setting": "[1]; 3, 10 and 30 μM, 2 h", "value": "increased"}, {"measurement": "swimming behaviour of normal zebrafish larvae", "setting": "zebrafish; BHDPC treatment alone", "value": "notably altered"}, {"measurement": "MPTP-induced deficit of swimming behavior (total distance travelled in 10 min)", "setting": "zebrafish; co-incubated with 10 μM MPTP, 96 hours, 3 dpf", "value": "ameliorated; also recorded: attenuated"}, {"measurement": "MPP+-induced neuronal death (LDH release)", "setting": "primary cortical neurons", "value": "prevented MPP^+-induced neuronal death"}]}
